From patent US10821115B2, “Compounds that inhibit Mcl-1 protein” (priority 2017, dated 2020)
Where two headings read alike, the source gives them in different places.

What was measured:
[1] = molecular target: recombinant human Mcl-1 (residues 171-327) / Bim interaction (Homo sapiens (Human), UniProt Q07820); experiment: biochemical; format: binding; settings: TR-FRET, Mcl-1(171-327) / biotin-Bim (51-76); read-out: Mcl-1 HTRF IC50
[2] = test system: human multiple myeloma cell line, OPM-2; experiment: Cell viability assay (OPM-2 10 FBS), CellTiter-Glo; format: cell-based
Summary of the method: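 Steps: plate cells at 3000/well in 10% FBS growth medium, add serially diluted compound, incubate 16 h at 37 °C with 5% CO2, add detection reagent and read luminescence after 25 min. A 4-parameter logistic model gives IC50.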

[3] = Homo sapiens, OPM-2, 16 h, read-out: OPM-2 10% FBS IC50 IP, OPM-2 cells, 10% FBS, 16 h, CellTiter-Glo
[4] = read-out: OPM-2 10% FBS IC50 IP, OPM-2 cells, 10% FBS, 16 h, CellTiter-Glo

Chain of recombinant human Mcl-1 (residues 171-327) / Bim interaction (Q07820 171-327): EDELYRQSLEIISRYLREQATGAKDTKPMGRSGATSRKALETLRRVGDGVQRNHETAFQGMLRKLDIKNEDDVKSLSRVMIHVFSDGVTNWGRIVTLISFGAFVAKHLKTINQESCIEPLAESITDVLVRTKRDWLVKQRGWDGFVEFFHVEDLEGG

Structure (SMILES) | IC50 [1] | IC50 [2, 3] | IC50 [2, 4]
CO[C@@]1(CC=C(C)C)/C=C/C[C@H](C)[C@@H](C)S(=O)(=O)NC(=O)c2ccc3c(c2)N(C[C@@H]2CC[C@H]21)C[C@@]1(CCCc2cc(Cl)ccc21)CO3 [Example 100447, (1S,3′R,6′R,7′S,8′E,11′S,12′R)-6-chloro-7′-methoxy-11′,12′-dimethyl-7′-(3-methyl-2-buten-1-yl)-3,4-dihydro-2H,15′H-spiro[naphthalene-1,22′-[20]oxa[13]thia[1,14]diazatetracyclo [14.7.2.0~3,6~.0~19,24~]pentacosa[8,16,18,24]tetraen]-15′-one 13′,13′-dioxide] | 0.05 nM | 184 nM | 
CO[C@]1(C#CCN2CCOCC2)/C=C/C[C@H](C)[C@@H](C)S(=O)(=O)NC(=O)c2ccc3c(c2)N(C[C@@H]2CC[C@H]21)C[C@@]1(CCCc2cc(Cl)ccc21)CO3 [Example 100448, (1S,3′R,6′R,7′R,8′E,11′S,12′R)-6-chloro-7′-methoxy-11′,12′-dimethyl-7′-(3-(4-morpholinyl)-1-propyn-1-yl)-3,4-dihydro-2H,15′H-spiro[naphthalene-1,22′-[20]oxa[13]thia[1,14]diazatetracyclo [14.7.2.0~3,6~.0~19,24~]pentacosa[8,16,18,24]tetraen]-15′-one 13′,13′-dioxide] | 0.373 nM |  | 1920 nM
CO[C@]1(CCN2CCCCC2)/C=C/C[C@H](C)[C@@H](C)S(=O)(=O)NC(=O)c2ccc3c(c2)N(C[C@@H]2CC[C@H]21)C[C@@]1(CCCc2cc(Cl)ccc21)CO3 [Example 100449, (1S,3′R,6′R,7′R,8′E,11′S,12′R)-6-chloro-7′-methoxy-11′,12′-dimethyl-7′-(2-(1-piperidinyl)ethyl)-3,4-dihydro-2H,15′H-spiro[naphthalene-1,22′-[20]oxa[13]thia[1,14]diazatetracyclo [14.7.2.0~3,6~.0~19,24~]pentacosa[8,16,18,24]tetraen]-15′-one 13′,13′-dioxide] | 0.071 nM | 171 nM | 
CO[C@@]1(CC(=O)N(C)C2CCC2)/C=C/C[C@H](C)[C@@H](C)S(=O)(=O)NC(=O)c2ccc3c(c2)N(C[C@@H]2CC[C@H]21)C[C@@]1(CCCc2cc(Cl)ccc21)CO3 [Example 100450, 2-((1S,3′R,6′R,7′S,8′E,11′S,12′R)-6-chloro-7′-methoxy-11′,12′-dimethyl-13′,13′-dioxido-15′-oxo-3,4-dihydro-2H-spiro[naphthalene-1,22′-[20]oxa[13]thia[1,14]diazatetracyclo [14.7.2.0~3,6~.0~19,24~]pentacosa[8,16,18,24]tetraen]-7′-yl)-N-cyclobutyl-N-methylacetamide] | 0.336 nM | 1910 nM | 
COC[C@@H](C)N(C)C(=O)C[C@]1(OC)/C=C/C[C@H](C)[C@@H](C)S(=O)(=O)NC(=O)c2ccc3c(c2)N(C[C@@H]2CC[C@H]21)C[C@@]1(CCCc2cc(Cl)ccc21)CO3 [Example 100451, 2-((1S,3′R,6′R,7′S,8′E,11′S,12′R)-6-chloro-7′-methoxy-11′,12′-dimethyl-13′,13′-dioxido-15′-oxo-3,4-dihydro-2H-spiro[naphthalene-1,22′-[20]oxa[13]thia[1,14]diazatetracyclo [14.7.2.0~3,6~.0~19,24~]pentacosa[8,16,18,24]tetraen]-7′-yl)-N-((2R)-1-methoxy-2-propanyl)-N-methylacetamide] | 0.111 nM | 412 nM | 
C[C@@H]1[C@@H](C)CCCC(CN2CCOCC2)(CN2CCOCC2)[C@@H]2CC[C@H]2CN2C[C@@]3(CCCc4cc(Cl)ccc43)COc3ccc(cc32)C(=O)NS1(=O)=O [Example 100452, (1S,3′R,6′R,11′S,12′R)-6-chloro-11′,12′-dimethyl-7′,7′-bis(4-morpholinylmethyl)-3,4-dihydro-2H,15′H-spiro[naphthalene-1,22′-[20]oxa[13]thia[1,14]diazatetracyclo [14.7.2.0~3,6~.0~19,24~]pentacosa[16,18,24]trien]-15′-one 13′,13′-dioxide] | 0.077 nM | 157 nM | 
CO[C@]1(CCN2CC(C)(N(C)C)C2)/C=C/C[C@H](C)[C@@H](C)S(=O)(=O)NC(=O)c2ccc3c(c2)N(C[C@@H]2CC[C@H]21)C[C@@]1(CCCc2cc(Cl)ccc21)CO3 [Example 100453, (1S,3′R,6′R,7′R,8′E,11′S,12′R)-6-chloro-7′-(2-(3-(dimethylamino)-3-methyl-1-azetidinyl)ethyl)-7′-methoxy-11′,12′-dimethyl-3,4-dihydro-2H,15′H-spiro[naphthalene-1,22′-[20]oxa[13]thia[1,14]diazatetracyclo [14.7.2.0~3,6~.0~19,24~]pentacosa[8,16,18,24]tetraen]-15′-one 13′,13′-dioxide] | 0.927 nM | 2930 nM | 
C[C@@H]1[C@@H](C)C/C=C/[C@@](O)(C#CCCc2ccccn2)[C@@H]2CC[C@H]2CN2C[C@@]3(CCCc4cc(Cl)ccc43)COc3ccc(cc32)C(=O)NS1(=O)=O [Example 100454, (1S,3′R,6′R,7′S,8′E,11′S,12′R)-6-chloro-7′-hydroxy-11′,12′-dimethyl-7′-(4-(2-pyridinyl)-1-butyn-1-yl)-3,4-dihydro-2H,15′H-spiro[naphthalene-1,22′-[20]oxa[13]thia[1,14]diazatetracyclo [14.7.2.0~3,6~.0~19,24~]pentacosa[8,16,18,24]tetraen]-15′-one 13′,13′-dioxide] | 0.652 nM |  | 802 nM
CCC(=O)C[C@]1(OC)/C=C/C[C@H](C)[C@@H](C)S(=O)(=O)NC(=O)c2ccc3c(c2)N(C[C@@H]2CC[C@H]21)C[C@@]1(CCCc2cc(Cl)ccc21)CO3 [Example 100457, (1S,3′R,6′R,7′S,8′E,11′S,12′R)-6-chloro-7′-methoxy-11′,12′-dimethyl-7′-(2-oxobutyl)-3,4-dihydro-2H,15′H-spiro[naphthalene-1,22′-[20]oxa[13]thia[1,14]diazatetracyclo [14.7.2.0~3,6~.0~19,24~]pentacosa[8,16,18,24]tetraen]-15′-one 13′,13′-dioxide] | 0.331 nM | 967 nM | 
CO[C@@]1(CC(=O)c2ccccc2)/C=C/C[C@H](C)[C@@H](C)S(=O)(=O)NC(=O)c2ccc3c(c2)N(C[C@@H]2CC[C@H]21)C[C@@]1(CCCc2cc(Cl)ccc21)CO3 [Example 100458, (1S,3′R,6′R,7′S,8′E,11′S,12′R)-6-chloro-7′-methoxy-11′,12′-dimethyl-7′-(2-oxo-2-phenylethyl)-3,4-dihydro-2H,15′H-spiro[naphthalene-1,22′-[20]oxa[13]thia[1,14]diazatetracyclo [14.7.2.0~3,6~.0~19,24~]pentacosa[8,16,18,24]tetraen]-15′-one 13′,13′-dioxide] | 0.21 nM | 418 nM | 
CO[C@@]1(CS(C)(=O)=O)/C=C/C[C@H](C)[C@@H](C)S(=O)(=O)NC(=O)c2ccc3c(c2)N(C[C@@H]2CC[C@H]21)C[C@@]1(CCCc2cc(Cl)ccc21)CO3 [Example 100459, (1S,3′R,6′R,7′S,8′E,11′S,12′R)-6-chloro-7′-methoxy-11′,12′-dimethyl-7′-((methylsulfonyl)methyl)-3,4-dihydro-2H,15′H-spiro[naphthalene-1,22′-[20]oxa[13]thia[1,14]diazatetracyclo [14.7.2.0~3,6~.0~19,24~]pentacosa[8,16,18,24]tetraen]-15′-one 13′,13′-dioxide] | 0.685 nM | 732 nM | 
CO[C@@H](C[C@]1(OC)/C=C/C[C@H](C)[C@@H](C)S(=O)(=O)NC(=O)c2ccc3c(c2)N(C[C@@H]2CC[C@H]21)C[C@@]1(CCCc2cc(Cl)ccc21)CO3)C1CC1 [Example 100462, (1S,3′R,6′R,7′S,8′E,11′S,12′R)-6-chloro-7′-((2S)-2-cyclopropyl-2-methoxyethyl)-7′-methoxy-11′,12′-dimethyl-3,4-dihydro-2H,15′H-spiro[naphthalene-1,22′-[20]oxa[13]thia[1,14]diazatetracyclo [14.7.2.0~3,6~.0~19,24~]pentacosa[8,16,18,24]tetraen]-15′-one 13′,13′-dioxide] | 0.304 nM | 652 nM | 
CO[C@@H](C[C@]1(OC)/C=C/C[C@H](C)[C@@H](C)S(=O)(=O)NC(=O)c2ccc3c(c2)N(C[C@@H]2CC[C@H]21)C[C@@]1(CCCc2cc(Cl)ccc21)CO3)C1CC1 [Example 100463, (1S,3′R,6′R,7′S,8′E,11′S,12′R)-6-chloro-7′-((2S)-2-cyclopropyl-2-methoxyethyl)-7′-methoxy-11′,12′-dimethyl-3,4-dihydro-2H,15′H-spiro[naphthalene-1,22′-[20]oxa[13]thia[1,14]diazatetracyclo [14.7.2.0~3,6~.0~19,24~]pentacosa[8,16,18,24]tetraen]-15′-one 13′,13′-dioxide] | 0.383 nM |  | 1130 nM
COCCO[C@@]1(C)/C=C/C[C@H](C)[C@@H](C)S(=O)(=O)NC(=O)c2ccc3c(c2)N(C[C@@H]2CC[C@H]21)C[C@@]1(CCCc2cc(Cl)ccc21)CO3 [Example 100466, (1S,3′R,6′R,7′S,8′E,11′S,12′R)-6-chloro-7′-(2-methoxyethoxy)-7′,11′,12′-trimethyl-3,4-dihydro-2H,15′H-spiro[naphthalene-1,22′-[20]oxa[13]thia[1,14]diazatetracyclo [14.2.0~3,6~.0~19,24~]pentacosa[8,16,18,24]tetraen]-15′-one 13′,13′-dioxide] | 0.043 nM | 1440 nM | 
C[C@@H]1[C@@H](C)C/C=C/[C@@](C)(OCCN2CCOCC2)[C@@H]2CC[C@H]2CN2C[C@@]3(CCCc4cc(Cl)ccc43)COc3ccc(cc32)C(=O)NS1(=O)=O [Example 100467, (1S,3′R,6′R,7′R,8′E,11′S,12′R)-6-chloro-7′,11′,12′-trimethyl-7′-(2-(4-morpholinyl)ethoxy)-3,4-dihydro-2H,15′H-spiro[naphthalene-1,22′-[20]oxa[13]thia[1,14]diazatetracyclo [14.7.2.0~3,6~.0~19,24~]pentacosa[8,16,18,24]tetraen]-15′-one 13′,13′-dioxide] | 0.303 nM | 516 nM | 
